# Measured values published in ChEMBL document CHEMBL1127883, “Increased antiviral activity of HIV protease inhibitors of the difluorostatone type bearing (R)-valinol derivatives as novel c-termini” (Bioorg Med Chem Lett, 1994).
# System: Human immunodeficiency virus 1
# Experiment: Antiviral activity against HIV-1 108/F in PBMC 3 cell line
# Assay type: functional
# Conditions: Human immunodeficiency virus 1, PBMC; read-out: ED50 (the source's name)
row,SMILES,EC50 [nM]
1,CC(C)[C@H](COCc1ccccc1)NC(=O)C(F)(F)C(=O)C(Cc1ccc(OCc2ccccc2)cc1)NC(=O)[C@@H](NC(=O)OCc1ccccc1)C(C)C (some centres not stated),35

# System: CCRF-CEM
# Experiment: Antiviral activity against HIV-1 HIB in CEM cell line
# Assay type: functional
# Conditions: Homo sapiens, read-out: ED50 (the source's name)
row,SMILES,EC50 [nM]
1,CC(C)[C@H](COCc1ccccc1)NC(=O)C(F)(F)C(=O)C(Cc1ccc(OCc2ccccc2)cc1)NC(=O)[C@@H](NC(=O)OCc1ccccc1)C(C)C (some centres not stated),30

# System: Human immunodeficiency virus 1
# Experiment: Antiviral activity against HIV-1CC in PBMC cell line; Out of 7 days
# Assay type: functional
# Conditions: Human immunodeficiency virus 1, PBMC, 168 h; read-out: ED50 (the source's name)
row,SMILES,EC50 [nM]
1,CC(C)[C@H](COCc1ccccc1)NC(=O)C(F)(F)C(=O)C(Cc1ccc(OCc2ccccc2)cc1)NC(=O)[C@@H](NC(=O)OCc1ccccc1)C(C)C (some centres not stated),80

# System: C8166
# Experiment: Cytotoxic activity against HIV-1 RF in […] cell line
# Assay type: functional
# Conditions: Homo sapiens, read-out: CD50 (the source's name)
row,SMILES,CC50 [nM]
1,CC(C)[C@H](COCc1ccccc1)NC(=O)C(F)(F)C(=O)C(Cc1ccc(OCc2ccccc2)cc1)NC(=O)[C@@H](NC(=O)OCc1ccccc1)C(C)C (some centres not stated),25000

# System: Human immunodeficiency virus 1
# Experiment: Antiviral activity against HIV-1CCl in PBMC cell line; Out of 21 days
# Assay type: functional
# Conditions: Human immunodeficiency virus 1, PBMC, 504 h; read-out: ED50 (the source's name)
row,SMILES,EC50 [nM]
1,CC(C)[C@H](COCc1ccccc1)NC(=O)C(F)(F)C(=O)C(Cc1ccc(OCc2ccccc2)cc1)NC(=O)[C@@H](NC(=O)OCc1ccccc1)C(C)C (some centres not stated),70

# Molecular target: T1, Human immunodeficiency virus type 1 protease (Human immunodeficiency virus 1, UniProt Q72874)
# Experiment: Inhibitory activity was determined against HIV-1 protease.
# Conditions: not given
row,SMILES,IC50 [nM]
1,COCCOCO[C@H](NC(=O)C(F)(F)C(=O)C(Cc1ccc(OCc2ccccc2)cc1)NC(=O)[C@@H](NC(=O)OCc1ccccc1)C(C)C)C(C)C (some centres not stated),< 10
2,CC(C)[C@H](NC(=O)OCc1ccccc1)C(=O)NC(Cc1ccc(OCc2ccccc2)cc1)C(=O)C(F)(F)C(=O)N[C@@H](C(=O)OC(C)(C)C)C(C)C (some centres not stated),6
3,COC(=O)[C@H](NC(=O)C(F)(F)C(=O)C(Cc1ccc(OCc2ccccc2)cc1)NC(=O)[C@@H](NC(=O)OCc1ccccc1)C(C)C)C(C)C (some centres not stated),< 10
4,CC(C)[C@H](NC(=O)OCc1ccccc1)C(=O)NC(Cc1ccc(OCc2ccccc2)cc1)C(=O)C(F)(F)C(=O)N[C@@H](C(=O)O)C(C)C (some centres not stated),4
5,CC(C)[C@H](COCc1ccccc1)NC(=O)C(F)(F)[C@H](O)C(Cc1ccc(OCc2ccccc2)cc1)NC(=O)[C@@H](NC(=O)OCc1ccccc1)C(C)C (some centres not stated),5
6,COCCOCCO[C@H](NC(=O)C(F)(F)C(=O)C(Cc1ccc(OCc2ccccc2)cc1)NC(=O)[C@@H](NC(=O)OCc1ccccc1)C(C)C)C(C)C (some centres not stated),< 15
7,CC(C)CNC(=O)C(F)(F)C(=O)C(Cc1ccc(OCc2ccccc2)cc1)NC(=O)[C@@H](NC(=O)OCc1ccccc1)C(C)C (some centres not stated),5
8,CC(C)NC(=O)C(F)(F)C(=O)C(Cc1ccc(OCc2ccccc2)cc1)NC(=O)[C@@H](NC(=O)OCc1ccccc1)C(C)C (some centres not stated),5
9,CC(C)[C@H](COCc1ccccc1)NC(=O)C(F)(F)[C@@H](O)C(Cc1ccc(OCc2ccccc2)cc1)NC(=O)[C@@H](NC(=O)OCc1ccccc1)C(C)C (some centres not stated),6.6

# System: H9
# Experiment: Antiviral activity against HIV-1MN in H9 cell line
# Assay type: functional
# Conditions: Homo sapiens, read-out: ED50 (the source's name)
row,SMILES,EC50 [nM]
1,CC(C)[C@H](COCc1ccccc1)NC(=O)C(F)(F)C(=O)C(Cc1ccc(OCc2ccccc2)cc1)NC(=O)[C@@H](NC(=O)OCc1ccccc1)C(C)C (some centres not stated),12

# System: C8166
# Experiment: Antiviral activity against HIV-1 RF in […] cell line
# Assay type: functional
# Conditions: Homo sapiens, read-out: ED50 (the source's name)
row,SMILES,EC50 [nM]
1,CC(C)[C@H](COCc1ccccc1)NC(=O)C(F)(F)C(=O)C(Cc1ccc(OCc2ccccc2)cc1)NC(=O)[C@@H](NC(=O)OCc1ccccc1)C(C)C (some centres not stated),9

# Molecular target: Human immunodeficiency virus type 1 protease (Human immunodeficiency virus 1) (UniProt Q72874)
# Experiment: Concentration that inhibits cellular growth of MT-4 cells acutely infected with HIV-1 RFstrain by 50%
# Assay type: functional, cell-based
# Conditions: MT4
row,SMILES,ED50 [nM]
1,COCCOCO[C@H](NC(=O)C(F)(F)C(=O)C(Cc1ccc(OCc2ccccc2)cc1)NC(=O)[C@@H](NC(=O)OCc1ccccc1)C(C)C)C(C)C (some centres not stated),15
2,CC(C)[C@H](NC(=O)OCc1ccccc1)C(=O)NC(Cc1ccc(OCc2ccccc2)cc1)C(=O)C(F)(F)C(=O)N[C@@H](C(=O)OC(C)(C)C)C(C)C (some centres not stated),240
3,COC(=O)[C@H](NC(=O)C(F)(F)C(=O)C(Cc1ccc(OCc2ccccc2)cc1)NC(=O)[C@@H](NC(=O)OCc1ccccc1)C(C)C)C(C)C (some centres not stated),22
4,CC(C)[C@H](NC(=O)OCc1ccccc1)C(=O)NC(Cc1ccc(OCc2ccccc2)cc1)C(=O)C(F)(F)C(=O)N[C@@H](C(=O)O)C(C)C (some centres not stated),50000
5,CC(C)[C@H](COCc1ccccc1)NC(=O)C(F)(F)[C@H](O)C(Cc1ccc(OCc2ccccc2)cc1)NC(=O)[C@@H](NC(=O)OCc1ccccc1)C(C)C (some centres not stated),> 100000
6,COCCOCCO[C@H](NC(=O)C(F)(F)C(=O)C(Cc1ccc(OCc2ccccc2)cc1)NC(=O)[C@@H](NC(=O)OCc1ccccc1)C(C)C)C(C)C (some centres not stated),45
7,CC(C)CNC(=O)C(F)(F)C(=O)C(Cc1ccc(OCc2ccccc2)cc1)NC(=O)[C@@H](NC(=O)OCc1ccccc1)C(C)C (some centres not stated),> 44000
8,CC(C)[C@H](COCc1ccccc1)NC(=O)C(F)(F)C(=O)C(Cc1ccc(OCc2ccccc2)cc1)NC(=O)[C@@H](NC(=O)OCc1ccccc1)C(C)C (some centres not stated),27
9,CC(C)NC(=O)C(F)(F)C(=O)C(Cc1ccc(OCc2ccccc2)cc1)NC(=O)[C@@H](NC(=O)OCc1ccccc1)C(C)C (some centres not stated),320
10,CC(C)[C@H](COCc1ccccc1)NC(=O)C(F)(F)[C@@H](O)C(Cc1ccc(OCc2ccccc2)cc1)NC(=O)[C@@H](NC(=O)OCc1ccccc1)C(C)C (some centres not stated),> 100000

# System: H9
# Experiment: Antiviral activity against HIV-1HIB in H9 cell line
# Assay type: functional
# Conditions: Homo sapiens, read-out: ED50 (the source's name)
row,SMILES,EC50 [nM]
1,CC(C)[C@H](COCc1ccccc1)NC(=O)C(F)(F)C(=O)C(Cc1ccc(OCc2ccccc2)cc1)NC(=O)[C@@H](NC(=O)OCc1ccccc1)C(C)C (some centres not stated),9

# System: C8166
# Experiment: Antiviral activity against HIV-2red in C8166 cell line
# Assay type: functional
# Conditions: Homo sapiens, read-out: ED50 (the source's name)
row,SMILES,EC50 [nM]
1,CC(C)[C@H](COCc1ccccc1)NC(=O)C(F)(F)C(=O)C(Cc1ccc(OCc2ccccc2)cc1)NC(=O)[C@@H](NC(=O)OCc1ccccc1)C(C)C (some centres not stated),33

# System: JM1
# Experiment: Cytotoxic activity against HIV-1QB8F in JM cell line
# Assay type: functional
# Conditions: Homo sapiens, read-out: CD50 (the source's name)
row,SMILES,CC50 [nM]
1,CC(C)[C@H](COCc1ccccc1)NC(=O)C(F)(F)C(=O)C(Cc1ccc(OCc2ccccc2)cc1)NC(=O)[C@@H](NC(=O)OCc1ccccc1)C(C)C (some centres not stated),> 100000

# System: JM1
# Experiment: Antiviral activity against HIV-1 QB8F in JM cell line
# Assay type: functional
# Conditions: Homo sapiens, read-out: ED50 (the source's name)
row,SMILES,EC50 [nM]
1,CC(C)[C@H](COCc1ccccc1)NC(=O)C(F)(F)C(=O)C(Cc1ccc(OCc2ccccc2)cc1)NC(=O)[C@@H](NC(=O)OCc1ccccc1)C(C)C (some centres not stated),16

# System: not listed separately
# Experiment: Cytotoxic activity was determined against HIV-1 infected MT-4 cells.
# Assay type: functional, cell-based
# Conditions: MT4
row,SMILES,CD50 [µM]
1,COCCOCO[C@H](NC(=O)C(F)(F)C(=O)C(Cc1ccc(OCc2ccccc2)cc1)NC(=O)[C@@H](NC(=O)OCc1ccccc1)C(C)C)C(C)C (some centres not stated),3.4
2,CC(C)[C@H](NC(=O)OCc1ccccc1)C(=O)NC(Cc1ccc(OCc2ccccc2)cc1)C(=O)C(F)(F)C(=O)N[C@@H](C(=O)OC(C)(C)C)C(C)C (some centres not stated),6
3,COC(=O)[C@H](NC(=O)C(F)(F)C(=O)C(Cc1ccc(OCc2ccccc2)cc1)NC(=O)[C@@H](NC(=O)OCc1ccccc1)C(C)C)C(C)C (some centres not stated),2.6
4,CC(C)[C@H](NC(=O)OCc1ccccc1)C(=O)NC(Cc1ccc(OCc2ccccc2)cc1)C(=O)C(F)(F)C(=O)N[C@@H](C(=O)O)C(C)C (some centres not stated),> 100
5,CC(C)[C@H](COCc1ccccc1)NC(=O)C(F)(F)[C@H](O)C(Cc1ccc(OCc2ccccc2)cc1)NC(=O)[C@@H](NC(=O)OCc1ccccc1)C(C)C (some centres not stated),> 100
6,COCCOCCO[C@H](NC(=O)C(F)(F)C(=O)C(Cc1ccc(OCc2ccccc2)cc1)NC(=O)[C@@H](NC(=O)OCc1ccccc1)C(C)C)C(C)C (some centres not stated),2.8
7,CC(C)CNC(=O)C(F)(F)C(=O)C(Cc1ccc(OCc2ccccc2)cc1)NC(=O)[C@@H](NC(=O)OCc1ccccc1)C(C)C (some centres not stated),44
8,CC(C)[C@H](COCc1ccccc1)NC(=O)C(F)(F)C(=O)C(Cc1ccc(OCc2ccccc2)cc1)NC(=O)[C@@H](NC(=O)OCc1ccccc1)C(C)C (some centres not stated),100
9,CC(C)NC(=O)C(F)(F)C(=O)C(Cc1ccc(OCc2ccccc2)cc1)NC(=O)[C@@H](NC(=O)OCc1ccccc1)C(C)C (some centres not stated),6
10,CC(C)[C@H](COCc1ccccc1)NC(=O)C(F)(F)[C@@H](O)C(Cc1ccc(OCc2ccccc2)cc1)NC(=O)[C@@H](NC(=O)OCc1ccccc1)C(C)C (some centres not stated),> 100

# System: Human immunodeficiency virus 1
# Experiment: Antiviral activity against HIV-1CCL in PBMC 2 cell line; Out of 14 days
# Assay type: functional
# Conditions: Human immunodeficiency virus 1, PBMC, 336 h; read-out: ED50 (the source's name)
row,SMILES,EC50 [nM]
1,CC(C)[C@H](COCc1ccccc1)NC(=O)C(F)(F)C(=O)C(Cc1ccc(OCc2ccccc2)cc1)NC(=O)[C@@H](NC(=O)OCc1ccccc1)C(C)C (some centres not stated),38

# System: H9
# Experiment: Antiviral activity against HIV-1U455 in H9 cell line
# Assay type: functional
# Conditions: Homo sapiens, read-out: ED50 (the source's name)
row,SMILES,EC50 [nM]
1,CC(C)[C@H](COCc1ccccc1)NC(=O)C(F)(F)C(=O)C(Cc1ccc(OCc2ccccc2)cc1)NC(=O)[C@@H](NC(=O)OCc1ccccc1)C(C)C (some centres not stated),35

# System: MT4
# Experiment: Antiviral activity against HIV-1 RF in MT-4 cell line
# Assay type: functional
# Conditions: Homo sapiens, read-out: ED50 (the source's name)
row,SMILES,EC50 [nM]
1,CC(C)[C@H](COCc1ccccc1)NC(=O)C(F)(F)C(=O)C(Cc1ccc(OCc2ccccc2)cc1)NC(=O)[C@@H](NC(=O)OCc1ccccc1)C(C)C (some centres not stated),27

# Molecular target: T1, Human immunodeficiency virus type 1 protease
# Experiment: Inhibitory activity against HIV-1 protease
# Conditions: not given
row,SMILES,Ki [nM]
1,CC(C)[C@H](COCc1ccccc1)NC(=O)C(F)(F)C(=O)C(Cc1ccc(OCc2ccccc2)cc1)NC(=O)[C@@H](NC(=O)OCc1ccccc1)C(C)C (some centres not stated),8

# System: C8166
# Experiment: Antiviral activity against SIV-mac251 in C8166 cell line
# Assay type: functional
# Conditions: Homo sapiens, read-out: ED50 (the source's name)
row,SMILES,EC50 [nM]
1,CC(C)[C@H](COCc1ccccc1)NC(=O)C(F)(F)C(=O)C(Cc1ccc(OCc2ccccc2)cc1)NC(=O)[C@@H](NC(=O)OCc1ccccc1)C(C)C (some centres not stated),28

# System: H938 cell line
# Experiment: Antiviral activity against HIV-1CCl protease in H938 cell line
# Assay type: functional
# Conditions: Homo sapiens, read-out: ED50 (the source's name)
row,SMILES,EC50 [nM]
1,CC(C)[C@H](COCc1ccccc1)NC(=O)C(F)(F)C(=O)C(Cc1ccc(OCc2ccccc2)cc1)NC(=O)[C@@H](NC(=O)OCc1ccccc1)C(C)C (some centres not stated),49

# System: MT4
# Experiment: Cytotoxic activity against HIV-1 in MT-4 cell line
# Assay type: functional
# Conditions: Homo sapiens, read-out: CD50 (the source's name)
row,SMILES,CC50 [nM]
1,CC(C)[C@H](COCc1ccccc1)NC(=O)C(F)(F)C(=O)C(Cc1ccc(OCc2ccccc2)cc1)NC(=O)[C@@H](NC(=O)OCc1ccccc1)C(C)C (some centres not stated),25000
